Measured values: PubChem BioAssay (NCI)
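Cells were grown in 96-well plates and exposed to each compound for 48 hours at five concentrations; endpoints were interpolated linearly between bracketing concentrations, or set to the highest concentration if not reached. GI50: concentration for 50% inhibition of growth. Definition used: TGI = concentration required for complete inhibition of growth.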

Key:
Assay in all cases: growth of human tumour cells (NCI), 48 h
U251 CNS = test system: U251 CNS
SF-268 CNS = test system: SF-268 CNS
SR leukemia = test system: SR leukemia
SNB-75 CNS = test system: SNB-75 CNS
NCI-H226 lung = test system: NCI-H226 lung
HCC-2998 colon = test system: HCC-2998 colon
CAKI-1 renal = test system: CAKI-1 renal
MDA-MB-435 = test system: MDA-MB-435
SW-620 colon = test system: SW-620 colon
HS 578T breast = test system: HS 578T breast

CCOC(=O)C(=Cc1ccc(Br)cc1)C(=O)OCC
GI50 (U251 CNS): 1.43 µM | TGI (U251 CNS): 2.98 µM | GI50 (SF-268 CNS): 1.91 µM | TGI (SF-268 CNS): 3.95 µM | GI50 (SR leukemia): 2.41 µM | TGI (SR leukemia): > 23.1 µM | GI50 (SNB-75 CNS): 1.59 µM | TGI (SNB-75 CNS): 3.17 µM | GI50 (NCI-H226 lung): 1.96 µM | TGI (NCI-H226 lung): 5.5 µM | GI50 (HCC-2998 colon): 1.91 µM | TGI (HCC-2998 colon): 3.48 µM | GI50 (CAKI-1 renal): 1.76 µM | TGI (CAKI-1 renal): 5.59 µM | GI50 (MDA-MB-435): 2.16 µM | TGI (MDA-MB-435): 6.91 µM | GI50 (SW-620 colon): 1.61 µM | TGI (SW-620 colon): 3.58 µM | GI50 (HS 578T breast): 4.03 µM | TGI (HS 578T breast): > 19.6 µM

O=S(=O)(Nc1ccc(Cl)c(C(F)(F)F)c1)c1ccc(-c2cnc(C3CC3)o2)cc1
GI50 (U251 CNS): 0.326 µM | TGI (U251 CNS): 10.9 µM | GI50 (SF-268 CNS): 1.24 µM | TGI (SF-268 CNS): 10.8 µM | GI50 (SR leukemia): 0.0822 µM | TGI (SR leukemia): > 23 µM | GI50 (SNB-75 CNS): 0.125 µM | TGI (SNB-75 CNS): 1.72 µM | GI50 (NCI-H226 lung): 1.41 µM | TGI (NCI-H226 lung): 4.73 µM | GI50 (HCC-2998 colon): 1.09 µM | TGI (HCC-2998 colon): 3.31 µM | GI50 (CAKI-1 renal): 0.162 µM | TGI (CAKI-1 renal): 5.75 µM | GI50 (MDA-MB-435): 0.0658 µM | TGI (MDA-MB-435): 0.606 µM | GI50 (SW-620 colon): 0.175 µM | TGI (SW-620 colon): > 35.5 µM | GI50 (HS 578T breast): 0.334 µM | TGI (HS 578T breast): 3.48 µM

C[C@]12CC[C@@H]3c4ccc(O)cc4CC[C@H]3[C@@H]1CC[C@@H]2NS(=O)(=O)c1cccc(Br)c1
GI50 (U251 CNS): 3.23 µM | TGI (U251 CNS): 11 µM | GI50 (SF-268 CNS): 3.98 µM | TGI (SF-268 CNS): 16.6 µM | GI50 (SR leukemia): 2.37 µM | TGI (SR leukemia): 7.63 µM | GI50 (SNB-75 CNS): 2.9 µM | TGI (SNB-75 CNS): 13.5 µM | GI50 (NCI-H226 lung): 3.19 µM | TGI (NCI-H226 lung): 15.6 µM | GI50 (HCC-2998 colon): 4.31 µM | TGI (HCC-2998 colon): 15.9 µM | GI50 (CAKI-1 renal): 2.99 µM | TGI (CAKI-1 renal): 11 µM | GI50 (MDA-MB-435): 2.69 µM | TGI (MDA-MB-435): 9.21 µM | GI50 (SW-620 colon): 4.07 µM | TGI (SW-620 colon): 18 µM | GI50 (HS 578T breast): 4.04 µM | TGI (HS 578T breast): 24.8 µM

O=C1OC(c2ccc([N+](=O)[O-])cc2)=N/C1=C\c1ccc(O)cc1
TGI (U251 CNS): > 100 µM | TGI (SF-268 CNS): > 100 µM | TGI (SR leukemia): > 100 µM | TGI (SNB-75 CNS): > 100 µM | TGI (NCI-H226 lung): > 100 µM | TGI (HCC-2998 colon): > 100 µM | TGI (CAKI-1 renal): > 100 µM | TGI (MDA-MB-435): > 100 µM | TGI (SW-620 colon): > 100 µM | TGI (HS 578T breast): > 100 µM

Cc1oc2c(c1C(=O)c1ccccc1)C(=O)c1ccccc1C2=O
TGI (U251 CNS): 21 µM | TGI (SF-268 CNS): 32.8 µM | TGI (SR leukemia): > 36.6 µM | TGI (SNB-75 CNS): 13.6 µM | TGI (NCI-H226 lung): 23.3 µM | TGI (HCC-2998 colon): 29.1 µM | TGI (CAKI-1 renal): 9.12 µM | TGI (MDA-MB-435): 2.97 µM | TGI (SW-620 colon): 4.59 µM | TGI (HS 578T breast): > 100 µM

c1ccc(-c2cc(-c3cc(-c4ccccn4)[nH]n3)n[nH]2)nc1
TGI (U251 CNS): > 100 µM | TGI (SF-268 CNS): > 100 µM | TGI (SR leukemia): 80.6 µM | TGI (SNB-75 CNS): > 100 µM | TGI (NCI-H226 lung): > 100 µM | TGI (HCC-2998 colon): 83.6 µM | TGI (CAKI-1 renal): > 100 µM | TGI (MDA-MB-435): > 100 µM | TGI (SW-620 colon): > 100 µM | TGI (HS 578T breast): > 100 µM

O=[N+]([O-])c1ccc(N(CCO)CCO)c2c1no[n+]2[O-]
GI50 (U251 CNS): 0.655 µM | TGI (U251 CNS): 2.37 µM | GI50 (SF-268 CNS): 1.24 µM | TGI (SF-268 CNS): 5.02 µM | GI50 (SR leukemia): 0.215 µM | TGI (SR leukemia): 0.899 µM | GI50 (SNB-75 CNS): 0.961 µM | TGI (SNB-75 CNS): 5.47 µM | GI50 (NCI-H226 lung): 2.01 µM | TGI (NCI-H226 lung): 6.59 µM | GI50 (HCC-2998 colon): 1.26 µM | TGI (HCC-2998 colon): 3.46 µM | GI50 (CAKI-1 renal): 0.471 µM | TGI (CAKI-1 renal): 2.36 µM | GI50 (MDA-MB-435): 1.51 µM | TGI (MDA-MB-435): 4.87 µM | GI50 (SW-620 colon): 1.32 µM | TGI (SW-620 colon): 3.71 µM | GI50 (HS 578T breast): 0.705 µM | TGI (HS 578T breast): 4.29 µM

CN(C)CCCC1(c2ccc(F)cc2)OCc2cc(-c3ccc4cc[nH]c4c3)ccc21 (stereo not drawn)
GI50 (SF-268 CNS): 1.64 µM | TGI (SF-268 CNS): 3.26 µM | GI50 (SR leukemia): 2.41 µM | TGI (SR leukemia): 5.41 µM | GI50 (SNB-75 CNS): 1.35 µM | TGI (SNB-75 CNS): 3.54 µM | GI50 (NCI-H226 lung): 10.7 µM | TGI (NCI-H226 lung): 29.3 µM | GI50 (HCC-2998 colon): 1.84 µM | TGI (HCC-2998 colon): 3.48 µM | GI50 (CAKI-1 renal): 1.63 µM | TGI (CAKI-1 renal): 3.11 µM | GI50 (MDA-MB-435): 1.73 µM | TGI (MDA-MB-435): 3.23 µM | GI50 (SW-620 colon): 1.83 µM | TGI (SW-620 colon): 3.64 µM | GI50 (HS 578T breast): 1.8 µM | TGI (HS 578T breast): 4.27 µM
